Reference: PMC12881674, “Activation of TRPV3 channels in bladder cancer cells stimulates ATP release” (Molecular Pharmacology, 2025)

Target: T1, TRPV3 in KU-19-19 cells (Homo sapiens, UniProt Q8NET8)
T1 construct: host or cells: KU-19-19
T1 sequence (Q8NET8 1-790): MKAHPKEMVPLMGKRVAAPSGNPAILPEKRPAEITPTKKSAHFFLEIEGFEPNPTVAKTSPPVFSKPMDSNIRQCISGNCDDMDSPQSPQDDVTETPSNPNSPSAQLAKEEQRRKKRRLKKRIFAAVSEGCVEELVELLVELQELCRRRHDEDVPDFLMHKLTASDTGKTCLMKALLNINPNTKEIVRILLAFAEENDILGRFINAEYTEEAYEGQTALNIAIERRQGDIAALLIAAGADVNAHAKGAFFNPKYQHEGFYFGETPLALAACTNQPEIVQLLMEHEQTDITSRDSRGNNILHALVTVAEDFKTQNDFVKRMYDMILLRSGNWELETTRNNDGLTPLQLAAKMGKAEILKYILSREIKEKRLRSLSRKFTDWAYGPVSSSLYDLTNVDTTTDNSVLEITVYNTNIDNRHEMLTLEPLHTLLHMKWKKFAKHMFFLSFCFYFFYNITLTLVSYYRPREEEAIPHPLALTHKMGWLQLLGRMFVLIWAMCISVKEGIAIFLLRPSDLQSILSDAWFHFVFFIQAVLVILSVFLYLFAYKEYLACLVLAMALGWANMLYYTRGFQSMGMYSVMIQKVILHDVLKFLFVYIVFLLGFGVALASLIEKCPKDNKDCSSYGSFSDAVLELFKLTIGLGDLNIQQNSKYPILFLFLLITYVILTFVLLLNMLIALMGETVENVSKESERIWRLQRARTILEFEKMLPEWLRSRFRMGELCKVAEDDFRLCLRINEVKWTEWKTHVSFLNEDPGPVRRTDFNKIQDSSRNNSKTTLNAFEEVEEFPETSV
Assay: fura-2 Ca2+ assay in KU-19-19 bladder cancer cells
Type: cell-based
Conditions: 50 μM AV3-1
Method: All fluorometric Ca^2+ assays were performed in HBS buffer at room temperature. The compounds of the Enamine Diversity Set were diluted in a buffer composed of 150 mM NaCl and 20 mM HEPES and added to the cells at a final concentration of 25 μM (0.5% DMSO). For the primary compound screening and the generation of concentration-response analyses, a robotic liquid handling station (Freedom Evo 150; Tecan) with a built-in custom-made fluorescence plate imager was used. HEKTRPV3 and bladder cancer cell lines were harvested and loaded with 4 μM fluo-4/AM (Invitrogen; Fisher Scientific) in cell culture medium for 30 minutes at 37 °C. […] Fluorescence was excited using a 470-nm light-emitting diode, and emitted light was imaged through a 515-nm–long pass filter with a cooled Zyla 5.5 camera (Andor). Fluorescence was recorded and processed under the control of the μ-Manager 2.0 gamma software (https://micro-manager.org.[28]). After recording baseline fluorescence, compounds were dispensed into the wells via the liquid handling device. […] For further analysis, fluorescence signals were calculated for each well, corrected for background intensities and normalized to the initial signals. […] Fluorescence signals were excited with a fiber-coupled monochromator device (Polychrome V; Till Photonics) at 340, 358, and 380 nm and calibrated as described before.[29] […]

SMILES: COC(=O)C12CN(Cc3ccccc3)CC1(C(=O)OC)CN(Cc1ccccc1)C2 (stereo not shown) [AV3-1]
- [Ca2+]i response in KU-19-19 cells: robust increases in [Ca^2+]i
